Experimental data as given in US10065950B2, “Substituted thiazoles as HIV integrase inhibitors” (Japan Tobacco Inc., priority 2010, dated 2018).

Target: HIV-1 pNL4-3 integrase (Human immunodeficiency virus type 1 group M subtype B (isolate NY5) (HIV-1), UniProt P12497)
Assay: Determination of enzyme (HIV integrase) inhibitory activity
Format: biochemical
Settings: calculated from inhibition rate (fluorescence)
Summary of the method: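 Full-length pNL4-3 integrase from E. coli (0.75 μM stock) reacted 60 min at 37° C with compound and biotinylated donor DNA bound to streptavidin plates, in MOPS buffer with 5 mM MgCl2 and 10% DMSO. Digoxigenin-labelled target DNA (25 nM stock) then added for 20 min; strand transfer read by peroxidase anti-digoxigenin fluorescence (Ex 325/Em 420 nm).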

Compound	IC50
CCOC[C@H]1CN(C(C)C)C(=O)c2c(O)c(=O)c(-c3nnc(Cc4ccc(F)cc4F)s3)cn21 [Example 142]	6.4 nM
CCN1C(=O)c2c(O)c(=O)c(-c3nnc(Cc4ccc(F)cc4)s3)cn2C[C@@H]1COC [Example 113]	13 nM
COC[C@H]1CN(C(C)C)C(=O)c2c(O)c(=O)c(-c3nnc(Cc4cc(OC)c(F)cc4F)s3)cn21 [Example 277]	12 nM
COCC1(C)CN(C(C)C)C(=O)c2c(O)c(=O)c(-c3ncc(Cc4ccc(F)cc4)s3)cn21 (centres unmarked) [Example 103]	18 nM
CC(C)N1C(=O)c2c(O)c(=O)c(-c3nnc(Cc4ccc(F)cc4)s3)cn2C[C@@H]1C [Example 233]	6.4 nM
CCN1C(=O)c2c(O)c(=O)c(-c3nnc(Cc4ccc(F)cc4)s3)cn2[C@H](COC)[C@H]1C [Example 289]	10 nM
CCC(=O)NCC1CN(C(C)C)C(=O)c2c(O)c(=O)c(-c3ncc(Cc4ccc(F)cc4F)s3)cn21 (centres unmarked) [Example 68]	9.8 nM
CCO[C@H](CC)[C@H]1CN(C(C)C)C(=O)c2c(O)c(=O)c(-c3nnc(Cc4ccc(F)cc4)s3)cn21 [Example 389]	14 nM
CC(=O)N(C)CC1(C)CN(C(C)C)C(=O)c2c(O)c(=O)c(-c3ncc(Cc4ccc(F)cc4F)s3)cn21 (centres unmarked) [Example 139]	12 nM
CCN1C[C@@H](COCCOC)n2cc(-c3nnc(Cc4ccc(F)cc4F)s3)c(=O)c(O)c2C1=O [Example 127]	14 nM
CNC(=O)[C@]1(C)CN(C(C)C)C(=O)c2c(O)c(=O)c(-c3nnc(Cc4ccc(F)cc4F)s3)cn21 [Example 190]	11 nM
CO[C@H](C)[C@@H]1CN(C(C)C)C(=O)c2c(O)c(=O)c(-c3nnc(Cc4ccc(F)cc4)s3)cn21 [Example 338]	7.1 nM
CC(C)N1C[C@](C)(C(=O)N2CCC2)n2cc(-c3nnc(Cc4ccc(F)cc4)s3)c(=O)c(O)c2C1=O [Example 2]	13 nM
CC[C@]1(C(=O)N2CCC2)CN(C(C)C)C(=O)c2c(O)c(=O)c(-c3nnc(Cc4ccc(F)cc4)s3)cn21 [Example 392]	11 nM
CO[C@H]1CCN(C(=O)[C@@]2(C)CN(C(C)C)C(=O)c3c(O)c(=O)c(-c4nnc(Cc5ccc(F)cc5)s4)cn32)C1 [Example 212]	14 nM
CNC(=O)C1CN(C)C(=O)c2c(O)c(=O)c(-c3ncc(Cc4ccc(F)cc4F)s3)cn21 (centres unmarked) [Example 160]	6.1 nM
COC[C@@H]1Cn2cc(-c3nnc(Cc4ccc(F)cc4)s3)c(=O)c(O)c2C(=O)N1C1CCC1 [Example 195]	5.9 nM
CCNC(=O)[C@]1(C)Cn2cc(-c3nnc(Cc4ccc(F)cc4)s3)c(=O)c(O)c2C(=O)N1C(C)C [Example 307]	11 nM
CC(C)N1CC(C)(C(=O)N2CCCCC2)n2cc(-c3ncc(Cc4ccc(F)cc4F)s3)c(=O)c(O)c2C1=O (centres unmarked) [Example 38]	12 nM
CC(C)N1CC(CS(C)(=O)=O)n2cc(-c3ncc(Cc4ccc(F)cc4F)s3)c(=O)c(O)c2C1=O (centres unmarked) [Example 101]	6.4 nM
CC(C)N1C(=O)c2c(O)c(=O)c(-c3nnc(Cc4ccc(F)cc4F)s3)cn2CC1CCO (centres unmarked) [Example 90]	6.7 nM
COCCOC[C@H]1CN(C(C)C)C(=O)c2c(O)c(=O)c(-c3ncc(Cc4ccc(F)cc4F)s3)cn21 [Example 56]	10 nM
COC[C@@H]1[C@@H](C)n2cc(-c3nnc(Cc4ccc(F)cc4)s3)c(=O)c(O)c2C(=O)N1C(C)C [Example 304]	9.1 nM

Compound	IC50
CCN1C(=O)c2c(O)c(=O)c(-c3ncc(Cc4ccc(F)cc4)s3)cn2C[C@H]1C [Example 330]	6.4 nM
COCCOC[C@H]1CN(C(C)C)C(=O)c2c(O)c(=O)c(-c3nnc(Cc4ccc(F)cc4F)s3)cn21 [Example 134]	16 nM
CC(C)N1CC(CC(=O)N2CCOCC2)n2cc(-c3ncc(Cc4ccc(F)cc4F)s3)c(=O)c(O)c2C1=O (centres unmarked) [Example 72]	11 nM
CC(C)N1CC(CN2C(=O)c3ccccc3C2=O)n2cc(-c3ncc(Cc4ccc(F)cc4F)s3)c(=O)c(O)c2C1=O (centres unmarked) [Example 65]	13 nM
CC(C)N1C[C@](C)(C(=O)N2CCCC2)n2cc(-c3nnc(Cc4ccc(F)cc4)s3)c(=O)c(O)c2C1=O [Example 179]	19 nM
COC[C@H]1CN(C(C)C)C(=O)c2c(O)c(=O)c(-c3nnc(Cc4ccc(OC)cc4)s3)cn21 [Example 240]	52 nM
COC[C@H]1CN(C(C)C)C(=O)c2c(O)c(=O)c(-c3nnc(Cc4ccc(F)cc4Br)s3)cn21 [Example 230]	69 nM
CC(C)N1CC(CC(=O)NC2CC2)n2cc(-c3ncc(Cc4ccc(F)cc4F)s3)c(=O)c(O)c2C1=O (centres unmarked) [Example 71]	11 nM
COC[C@H]1[C@@H](C)N(C(C)C)C(=O)c2c(O)c(=O)c(-c3nnc(Cc4ccc(F)cc4)s3)cn21 [Example 256]	8.2 nM
COC[C@@H]1Cn2cc(-c3nnc(Cc4ccc(F)cc4)s3)c(=O)c(O)c2C(=O)N1C(C)C1CC1 (some centres unmarked) [Example 206]	5.9 nM
COCC1Cn2cc(-c3ncc(Cc4ccc(F)cc4F)s3)c(=O)c(O)c2C(=O)N1C(C)C (centres unmarked) [Example 61]	6.6 nM
CCN1C(=O)c2c(O)c(=O)c(-c3nnc(Cc4ccc(F)cc4)s3)cn2C[C@H]1C(C)C [Example 286]	7.8 nM
CO[C@@H](C)[C@@H]1Cn2cc(-c3nnc(Cc4ccc(F)cc4)s3)c(=O)c(O)c2C(=O)N1C(C)C [Example 334]	9.1 nM
C[C@@H](C1CC1)N1C[C@](C)(C(=O)N2CCC2)n2cc(-c3ncc(Cc4ccc(F)cc4)s3)c(=O)c(O)c2C1=O [Example 273]	14 nM
CO[C@H]1CCN(C(=O)[C@@]2(C)CN(C(C)C)C(=O)c3c(O)c(=O)c(-c4ncc(Cc5ccc(F)cc5)s4)cn32)C1 [Example 214]	16 nM
COC[C@H]1CN([C@H](C)C2CC2)C(=O)c2c(O)c(=O)c(-c3nnc(Cc4ccc(F)cc4)s3)cn21 [Example 302]	9.9 nM
COCCOC[C@@H]1CN(CC(C)C)C(=O)c2c(O)c(=O)c(-c3nnc(Cc4ccc(F)cc4F)s3)cn21 [Example 47]	12 nM
CC[C@@H]1Cn2cc(-c3nnc(Cc4ccc(F)cc4)s3)c(=O)c(O)c2C(=O)N1CC [Example 291]	8.7 nM
COC[C@@H]1Cn2cc(-c3nnc(Cc4ccc(F)cc4F)s3)c(=O)c(O)c2C(=O)N1C(C)C [Example 99]	6.1 nM
COCCOC[C@H]1CN(CC(C)(C)C)C(=O)c2c(O)c(=O)c(-c3nnc(Cc4ccc(F)cc4F)s3)cn21 [Example 124]	15 nM
CNC(=O)C1CN(C(C)C)C(=O)c2c(O)c(=O)c(-c3ncc(Cc4ccc(F)cc4F)s3)cn21 (centres unmarked) [Example 22]	7 nM
CCNC(=O)C1(C)CN(C(C)C)C(=O)c2c(O)c(=O)c(-c3ncc(Cc4ccc(F)cc4F)s3)cn21 (centres unmarked) [Example 27]	10 nM
COC[C@H]1[C@H](C)N(C(C)C)C(=O)c2c(O)c(=O)c(-c3nnc(Cc4ccc(F)cc4)s3)cn21 [Example 285]	11 nM

Compound	IC50
CN1C[C@@](C)(C(=O)N2CCC2)n2cc(-c3ncc(Cc4ccc(F)cc4)s3)c(=O)c(O)c2C1=O [Example 266]	11 nM
CCN1C(=O)c2c(O)c(=O)c(-c3nnc(Cc4ccc(F)cc4)s3)cn2CC1(C)C [Example 355]	6.6 nM
COC[C@H]1CN(C(C)C)C(=O)c2c(O)c(=O)c(-c3nnc(Cc4ccc(F)cc4C4CC4)s3)cn21 [Example 251]	11 nM
CCN(C)C(=O)[C@]1(COC)CN(C(C)C)C(=O)c2c(O)c(=O)c(-c3nnc(Cc4ccc(F)cc4)s3)cn21 [Example 396]	15 nM
COC[C@H]1CN(C(C)C)C(=O)c2c(O)c(=O)c(-c3nnc(Cc4ccc(F)c(Cl)c4)s3)cn21 [Example 243]	7.6 nM
COCCOCC1(C)CN(C(C)C)C(=O)c2c(O)c(=O)c(-c3ncc(Cc4ccc(F)cc4F)s3)cn21 (centres unmarked) [Example 122]	19 nM
CCN1C(=O)c2c(O)c(=O)c(-c3nnc(CCc4ccc(F)cc4F)s3)cn2C[C@H]1COC [Example 300]	9 nM
CCN1C[C@](C)(COCCOC)n2cc(-c3nnc(Cc4ccc(F)cc4)s3)c(=O)c(O)c2C1=O [Example 296]	19 nM
CC(C)CNC(=O)C1CN(C(C)C)C(=O)c2c(O)c(=O)c(-c3ncc(Cc4ccc(F)cc4F)s3)cn21 (centres unmarked) [Example 32]	7.7 nM
CCN(C)C(=O)[C@]1(C)Cn2cc(-c3nnc(Cc4ccc(F)cc4)s3)c(=O)c(O)c2C(=O)N1C(C)C [Example 331]	9.3 nM
CC(C)N1CC(C(=O)N(C)C)n2cc(-c3ncc(Cc4ccc(F)cc4F)s3)c(=O)c(O)c2C1=O (centres unmarked) [Example 26]	7.6 nM
CCOCCOC[C@H]1CN(C(C)C)C(=O)c2c(O)c(=O)c(-c3nnc(Cc4ccc(F)cc4F)s3)cn21 [Example 143]	6.9 nM
CO[C@H](C)[C@@H]1CN(C(C)C)C(=O)c2c(O)c(=O)c(-c3ncc(Cc4ccc(F)cc4)s3)cn21 [Example 387]	11 nM
COCCOC[C@H]1Cn2cc(-c3nnc(Cc4ccc(F)cc4F)s3)c(=O)c(O)c2C(=O)N1C(C)C [Example 60]	17 nM
COC[C@H]1CN(C(C)C)C(=O)c2c(O)c(=O)c(-c3nnc(Cc4ccc(Cl)cc4F)s3)cn21 [Example 229]	12 nM
C[C@@H](C1CC1)N1C[C@](C)(C(=O)N(C)C)n2cc(-c3ncc(Cc4ccc(F)cc4)s3)c(=O)c(O)c2C1=O [Example 275]	14 nM
COC[C@@H]1CN(C(C)C)C(=O)c2c(O)c(=O)c(-c3nnc(Cc4ccc(F)cc4)s3)cn21 [Example 88]	8.7 nM
CC(C)N1C(=O)c2c(O)c(=O)c(-c3nnc(Cc4ccc(F)cc4F)s3)cn2C[C@@]1(C)C(=O)N(C)C [Example 321]	7 nM
CCN1C[C@](C)(CO)n2cc(-c3nnc(Cc4ccc(F)cc4)s3)c(=O)c(O)c2C1=O [Example 269]	9.4 nM
CN(C)C(=O)[C@@]1(C)CN(C)C(=O)c2c(O)c(=O)c(-c3ncc(Cc4ccc(F)cc4)s3)cn21 [Example 314]	7.9 nM
COC[C@@H]1Cn2cc(-c3ncc(Cc4ccc(F)cc4)s3)c(=O)c(O)c2C(=O)N1CC1CC1 [Example 217]	5.3 nM
CC(C)N1C[C@](C)(C(=O)N(C)C)n2cc(-c3nnc(Cc4ccc(F)cc4)s3)c(=O)c(O)c2C1=O [Example 177]	17 nM
